# Results reported in ChEMBL document CHEMBL1201862, “PubChem BioAssay data set” (2004).
#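 These data come from cells grown in 96-well plates and exposed to compound for 48 hours at five concentrations. The concentration for 50% growth inhibition is given as GI50.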 The source made the active and inactive calls. Cut-off read from the data, not from the text of the source: active = GI50 up to about 1.1 µM and inactive = higher.
# What was measured:
# Assay in all cases: NCI anticancer screen, dose series, 48 h
# [1] = test system: ACHN
# [2] = test system: CCRF-CEM
# [3] = test system: EKVX
# [4] = test system: HCT-116
# [5] = test system: K562
# [6] = test system: LOX IMVI
# [7] = test system: MCF7
# [8] = test system: MDA-N
# [9] = test system: MOLT-4
# [10] = test system: NCI-H226
# [11] = test system: NCI/ADR-RES
# [12] = test system: OVCAR-5
# [13] = test system: SK-MEL-2
# [14] = test system: SN12C
# [15] = test system: SNB-75
# [16] = test system: SW-620
# [17] = test system: U-251
# [18] = test system: Hs-578T
SMILES,GI50 [1],GI50 [2],GI50 [3],GI50 [4],GI50 [5],GI50 [6],GI50 [7],GI50 [8],GI50 [9],GI50 [10],GI50 [11],GI50 [12],GI50 [13],GI50 [14],GI50 [15],GI50 [16],GI50 [17],GI50 [18]
N#CC12CNCC1CN=N2 (configuration not stated),> 100 µM (inactive),> 100 µM (inactive),> 100 µM (inactive),> 100 µM (inactive),> 100 µM (inactive),> 100 µM (inactive),> 100 µM (inactive),> 100 µM (inactive),> 100 µM (inactive),> 100 µM (inactive),> 100 µM (inactive),> 100 µM (inactive),> 100 µM (inactive),> 100 µM (inactive),> 100 µM (inactive),> 100 µM (inactive),> 100 µM (inactive),–
O=C1/C(=C/c2ccc(O)cc2)CCC1CNc1ccccc1 (configuration not stated),12.3 µM (inactive),1.61 µM (inactive),18.3 µM (inactive),5.64 µM (inactive),1.5 µM (inactive),8.38 µM (inactive),2.25 µM (inactive),–,1.85 µM (inactive),17.9 µM (inactive),19 µM (inactive),17.7 µM (inactive),–,15 µM (inactive),26.2 µM (inactive),2.54 µM (inactive),16.4 µM (inactive),21.5 µM (inactive)
C[n+]1c2ccccc2c(N=[N+]=[N-])c2ccccc21,4.13 µM (inactive),3.33 µM (inactive),8.32 µM (inactive),4.22 µM (inactive),5.82 µM (inactive),2.94 µM (inactive),6.95 µM (inactive),–,4.69 µM (inactive),6.27 µM (inactive),> 10 µM (inactive),> 10 µM (inactive),> 10 µM (inactive),7.03 µM (inactive),–,6.28 µM (inactive),9.93 µM (inactive),> 10 µM (inactive)
N#Cc1c(N)n(C2OC(CO)C(O)C2O)c2ncnc(N)c12 (configuration not stated),0.0312 µM (active),0.025 µM (active),0.135 µM (active),0.0195 µM (active),0.048 µM (active),0.0165 µM (active),0.0168 µM (active),–,0.0248 µM (active),0.0684 µM (active),0.0243 µM (active),0.0541 µM (active),0.0521 µM (active),0.0186 µM (active),0.0798 µM (active),0.0228 µM (active),0.114 µM (active),0.144 µM (active)
O=C1OC2C(O)C(=O)OC2C1O (configuration not stated),> 100 µM (inactive),> 100 µM (inactive),> 100 µM (inactive),> 100 µM (inactive),> 100 µM (inactive),> 100 µM (inactive),> 100 µM (inactive),> 100 µM (inactive),> 100 µM (inactive),> 100 µM (inactive),> 100 µM (inactive),> 100 µM (inactive),> 100 µM (inactive),> 100 µM (inactive),95.3 µM (inactive),> 100 µM (inactive),> 100 µM (inactive),–
O=c1[nH]c2ccc(C(F)(F)F)cc2nc1C(F)(F)F,30.9 µM (inactive),11.1 µM (inactive),29.2 µM (inactive),20.9 µM (inactive),35.7 µM (inactive),20.7 µM (inactive),23 µM (inactive),35.7 µM (inactive),23.4 µM (inactive),18.8 µM (inactive),28.1 µM (inactive),35.6 µM (inactive),15 µM (inactive),29.4 µM (inactive),12.1 µM (inactive),–,35 µM (inactive),–
CC(C)(C)[Si](C)(C)OCC1OC(n2ccc(=O)[nH]c2=O)C(O[Si](C)(C)C(C)(C)C)[C@@]12O[C@H]2C(N)=O (some centres not stated),6.05 µM (inactive),> 10 µM (inactive),16.2 µM (inactive),4.08 µM (inactive),7.38 µM (inactive),3.4 µM (inactive),3.97 µM (inactive),5.37 µM (inactive),6.53 µM (inactive),0.445 µM (active),8.57 µM (inactive),11.8 µM (inactive),16.3 µM (inactive),13 µM (inactive),10.1 µM (inactive),6.01 µM (inactive),4.28 µM (inactive),–
O=C(COc1ccc(OCC(=O)N2C(=O)CS/C2=N\c2ccccc2)cc1)N1C(=O)CS/C1=N\c1ccccc1,12.5 µM (inactive),–,32.8 µM (inactive),10.6 µM (inactive),5.9 µM (inactive),–,19 µM (inactive),20.7 µM (inactive),14.6 µM (inactive),26.5 µM (inactive),19.5 µM (inactive),12.7 µM (inactive),25.9 µM (inactive),24.8 µM (inactive),90.4 µM (inactive),47.9 µM (inactive),31.8 µM (inactive),–
CCSc1nc(-c2cccs2)nc2ccc(I)cc12,> 100 µM (inactive),> 100 µM (inactive),46.9 µM (inactive),> 100 µM (inactive),> 100 µM (inactive),> 100 µM (inactive),13.1 µM (inactive),> 100 µM (inactive),> 100 µM (inactive),> 100 µM (inactive),> 100 µM (inactive),> 100 µM (inactive),> 100 µM (inactive),> 100 µM (inactive),> 100 µM (inactive),> 100 µM (inactive),> 100 µM (inactive),–
O=C(CC(=O)N1N=C(N(c2ccccc2)c2ccccc2)CC1c1ccccc1)Nc1cccc(Cl)c1 (configuration not stated),> 100 µM (inactive),> 100 µM (inactive),> 100 µM (inactive),> 100 µM (inactive),> 100 µM (inactive),–,> 100 µM (inactive),–,> 100 µM (inactive),> 100 µM (inactive),> 100 µM (inactive),> 100 µM (inactive),> 100 µM (inactive),> 100 µM (inactive),> 100 µM (inactive),> 100 µM (inactive),> 100 µM (inactive),> 100 µM (inactive)
COc1ccc(C[C@@H]2CN(C(=O)c3ccccc3)[C@H](Cc3ccc(O)cc3)CN2C(=O)c2ccccc2)cc1Br,> 100 µM (inactive),> 100 µM (inactive),> 100 µM (inactive),> 100 µM (inactive),> 100 µM (inactive),> 100 µM (inactive),> 100 µM (inactive),–,> 100 µM (inactive),> 100 µM (inactive),> 100 µM (inactive),> 100 µM (inactive),> 100 µM (inactive),> 100 µM (inactive),> 100 µM (inactive),> 100 µM (inactive),–,> 100 µM (inactive)
COC(=O)C1C(O)C(C)C(=O)C(C)/C=C\C=C(C)C(=O)Nc2c(C)c(OC(C)=O)c3c(c2O)C(=O)C(C)=C2OCOC(=C23)C(C)=CC(C)(O)C(O)C(C)C1O (configuration not stated),26.2 µM (inactive),20 µM (inactive),65.2 µM (inactive),24.9 µM (inactive),19.1 µM (inactive),24.9 µM (inactive),27.4 µM (inactive),–,29.4 µM (inactive),46.7 µM (inactive),46.9 µM (inactive),29 µM (inactive),25.2 µM (inactive),31.4 µM (inactive),49 µM (inactive),33.8 µM (inactive),96.8 µM (inactive),37.4 µM (inactive)
O=C1CC[C@@]2(O)[C@H]3Cc4ccc(-c5ccccc5)c5c4[C@@]2(CCN3CC2CC2)[C@H]1O5,20.6 µM (inactive),24.4 µM (inactive),19.6 µM (inactive),16.9 µM (inactive),24.3 µM (inactive),16 µM (inactive),18.2 µM (inactive),16.4 µM (inactive),18.6 µM (inactive),20.3 µM (inactive),16.3 µM (inactive),17.2 µM (inactive),17.9 µM (inactive),24.2 µM (inactive),–,10.3 µM (inactive),17 µM (inactive),–
CN(C)c1ccc(NN=C2SC(=N\c3ccccc3)/C(=N/c3ccccc3)S2)cc1,> 100 µM (inactive),5.2 µM (inactive),12.8 µM (inactive),14.9 µM (inactive),–,22.1 µM (inactive),–,20.3 µM (inactive),47.2 µM (inactive),> 100 µM (inactive),67.8 µM (inactive),70.5 µM (inactive),13.6 µM (inactive),43.4 µM (inactive),27.3 µM (inactive),53 µM (inactive),> 100 µM (inactive),57.4 µM (inactive)
Nc1nc(O)c(Br)c(-c2cccc([N+](=O)[O-])c2)n1,> 67.9 µM (inactive),> 100 µM (inactive),> 100 µM (inactive),> 100 µM (inactive),> 91.4 µM (inactive),> 100 µM (inactive),> 49.2 µM (inactive),–,> 77.4 µM (inactive),49.9 µM (inactive),> 100 µM (inactive),> 69.8 µM (inactive),> 100 µM (inactive),> 100 µM (inactive),55 µM (inactive),> 100 µM (inactive),> 100 µM (inactive),> 100 µM (inactive)
COc1ccc(CCCCl)c(C2=NCCc3ccccc32)c1,> 100 µM (inactive),53.6 µM (inactive),37.7 µM (inactive),29.5 µM (inactive),14.6 µM (inactive),–,38.2 µM (inactive),–,32.4 µM (inactive),31.7 µM (inactive),> 100 µM (inactive),> 100 µM (inactive),61.7 µM (inactive),9.91 µM (inactive),29.1 µM (inactive),70.8 µM (inactive),9.75 µM (inactive),20.6 µM (inactive)
